Target: MASP-2 CCP2-SP (Homo sapiens (Human), UniProt O00187)
Assay: MASP-2 co-crystallization, X-ray crystallography and structure analysis (H-bonds, van der Waals contacts);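 on Ligand-pharmacophore element distance, pharmacophore element C2: distance from averaged pharmacophore element to bound ligand; missing value means element absent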;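 on Ligand-pharmacophore element distance, pharmacophore element C3: distance from averaged pharmacophore element to bound ligand; missing value means element absent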;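 on Ligand-pharmacophore element distance, pharmacophore element C4: distance from averaged pharmacophore element to bound ligand; missing value means element absent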;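 on Ligand-pharmacophore element distance, pharmacophore element C5: distance from averaged pharmacophore element to bound ligand; missing value means element absent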
Set-up: van der Waals contact distance, MASP-2 HIS 483 atom CD2 / van der Waals contact distance, MASP-2 HIS 483 atom NE2 / van der Waals contact distance, SER 654 C to compound atom / van der Waals contact distance, SER 654 O to compound atom / van der Waals contact distance, TRP 655 C to compound atom / van der Waals contact distance, MASP-2 GLY 528 atom CA / van der Waals contact distance TRP 655 atom CZ3 / van der Waals contact distance TRP 655 atom N / van der Waals contact distance TRP 655 atom CE3 / van der Waals contact distance GLY 656 atom C / van der Waals contact distance GLY 656 atom CA / van der Waals contact distance GLY 656 atom O / van der Waals contact distance, MASP-2 TYR 607 atom CD1 / van der Waals contact distance, MASP-2 PRO 606 atom O / d(C3,CA1) / d(CA1,N1)2 / d(H4,O1) / d(H4,O2) / d(O1,O2) / d(CA1,O2) / d(CA6,O1) / d(CA6,O2) / d(CA1,C5) / d(O2,H3) / d(N2,C2) / d(CA5,N2) / d(N2,C4) / d(N2,C6) / d(N2,CA3) / d(N2,O3) / d(O4,H2): unit not given beside the values
Conditions: for Ligand-pharmacophore element distance, pharmacophore element C2 / Ligand-pharmacophore element distance, pharmacophore element C3 / Ligand-pharmacophore element distance, pharmacophore element C4 / Ligand-pharmacophore element distance, pharmacophore element C5 / Ligand-pharmacophore element distance, pharmacophore element C6 / Ligand-pharmacophore element distance, pharmacophore element C7 / Ligand-pharmacophore element distance, pharmacophore element CA1 / Ligand-pharmacophore element distance, pharmacophore element CA2 / Ligand-pharmacophore element distance, pharmacophore element CA3 / Ligand-pharmacophore element distance, pharmacophore element CA4 / Ligand-pharmacophore element distance, pharmacophore element CA5 / Ligand-pharmacophore element distance, pharmacophore element CA6: Table A4-1; for d(CA1,O1) / d(CA1,O2) / d(H4,O1) / d(H4,O2) / d(O1,O2) / d(CA1,N1): Table A5-1 pharmacophore: distance between elements, S2/S1 region; for a(CA1, O1, O2) / a(O1, O2, H4) / A(N1, CA1, O1) a): Table A6-1 pharmacophore angle; for Pharmacophore torsion angle a(H4, O1, O2, H3) / Pharmacophore torsion angle a(H4, O1, O2, N2) / Pharmacophore torsion angle a(O1, H4, O2, CA1) / Pharmacophore torsion angle a(N1, CA1, O2, H4) / Pharmacophore torsion angle a(O1, O2, N2, C2): Table A7-1; for Pharmacophore protein distance to MET_658 (first MET_658 column) / Pharmacophore protein distance to MET_658 (second MET_658 column) / Pharmacophore protein distance to GLY_528 / Pharmacophore protein distance to PHE_529 / Pharmacophore protein distance to PRO_608 / Pharmacophore protein distance to SER_611 / Pharmacophore protein distance to TRP_655: Table A8-6, nearest protein atom in cell to the left; for Pharmacophore protein distance to MET_658 (first MET_658 column): 6th residue column; for Pharmacophore protein distance to MET_658 (second MET_658 column): 9th residue column; for Pharmacophore protein distance to TRP_655: pharmacophore elements C6, CA3, O3, H1; for A(N1, CA1, O1) a): all compounds with protonatable center N1 except Methyl-amino-pyridine
Method in brief: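 E. coli-expressed CCP2-SP (±6His); apo crystals soaked 1–2× in inhibitor-containing crystallization solution; optional 20% glycerol cryoprotection, LN2 flash-cool; synchrotron data at 1.0 wavelength; MR using 1Q3X portions, partial refinement; single pose analysed when several seen.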

[1] = Table A5-2 pharmacophore distance, S3/S4 region
[2] = between pharmacophore elements of the bound compound
[3] = Table A7-2, between pharmacophore elements of the bound compound

Sequence of MASP-2 CCP2-SP (O00187 445-686): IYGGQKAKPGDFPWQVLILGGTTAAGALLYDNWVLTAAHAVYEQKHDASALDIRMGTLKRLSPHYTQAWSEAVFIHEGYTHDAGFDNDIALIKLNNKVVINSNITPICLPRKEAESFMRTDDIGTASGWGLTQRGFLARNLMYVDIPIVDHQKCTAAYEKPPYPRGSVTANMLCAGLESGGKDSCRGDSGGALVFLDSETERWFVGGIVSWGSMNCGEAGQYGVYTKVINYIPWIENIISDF
Sequence of MASP-2 CCP2-SP (O00187 364-432 partner): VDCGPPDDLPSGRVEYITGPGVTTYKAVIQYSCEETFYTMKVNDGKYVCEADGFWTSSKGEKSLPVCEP

For C[C@H](NC(=O)[C@H]1C[C@@H](c2ccccc2)CN1)C(=O)NCc1ccc2c(N)nccc2c1.Cl.Cl [1089_A], the “Ligand-pharmacophore element distance, pharmacophore element C2” value was 0, the “Ligand-pharmacophore element distance, pharmacophore element C3” value was 0 and the “Ligand-pharmacophore element distance, pharmacophore element C4” value was 0. The “Ligand-pharmacophore element distance, pharmacophore element C5” value was 0, the “Ligand-pharmacophore element distance, pharmacophore element C6” value was 0 and the “Ligand-pharmacophore element distance, pharmacophore element C7” value was 0. For the same compound, the “Ligand-pharmacophore element distance, pharmacophore element CA1” value was 1, the “Ligand-pharmacophore element distance, pharmacophore element CA2” value was 0.89 and the “Ligand-pharmacophore element distance, pharmacophore element CA3” value was 0. For the same compound, the “Ligand-pharmacophore element distance, pharmacophore element CA4” value was 0, the “Ligand-pharmacophore element distance, pharmacophore element CA5” value was 0 and the “Ligand-pharmacophore element distance, pharmacophore element CA6” value was 0. The “d(CA1,O1)” value was 5.75, the “d(CA1,O2)” value was 5.19 and the “d(H4,O1)” value was 3.13. The “d(H4,O2)” value was 3.70, the “d(O1,O2)” value was 3.34 and the “d(N2,CA2)” value [1] was 5.10. The “d(O2,H3)” value [1] was 5.94, the “d(O2,N2)” value [1] was 2.66 and the “a(CA1, O1, O2)” value was 98.23. For the same compound, the “a(O1, O2, H4)” value was 122.16, the “a(O1, O2, H3)” value (Table A6-2 pharmacophore angle) was 153.00 and the “a(O1, O2, N2)” value (Table A6-2 pharmacophore angle) was 141.72. For the same compound, the “a(O2, N2, CA2)” value (Table A6-2 pharmacophore angle) was 154.37, the “Pharmacophore torsion angle a(H4, O1, O2, H3)” value [2] was 88.95 and the “Pharmacophore torsion angle a(H4, O1, O2, N2)” value [2] was −175.67. For the same compound, the “Pharmacophore torsion angle a(O1, H4, O2, CA1)” value [2] was −95.88, the “Pharmacophore torsion angle a(O1, O2, N2, CA2)” value [3] was 137.41 and the “Pharmacophore protein distance to MET_658 (first MET_658 column)” value was 2.61. For the same compound, the “Pharmacophore protein distance to MET_658 (second MET_658 column)” value was 3.31, the “Pharmacophore protein distance to GLY_528” value was 3.59 and the “Pharmacophore protein distance to PHE_529” value was 2.81. For the same compound, the “Pharmacophore protein distance to PRO_608” value was 3.90, the “Pharmacophore protein distance to SER_611” value was 2.79 and the “Pharmacophore protein distance to TRP_655” value was 3.57.

In the case of C[C@H](NC(=O)[C@H]1C[C@@H](c2ccccc2)CN1)C(=O)NCc1ccc2c(N)nccc2c1.Cl.Cl [1089_B], the “Ligand-pharmacophore element distance, pharmacophore element C2” value is reported as 0, the “Ligand-pharmacophore element distance, pharmacophore element C3” value is reported as 0 and the “Ligand-pharmacophore element distance, pharmacophore element C4” value is reported as 0. For the same compound, the “Ligand-pharmacophore element distance, pharmacophore element C5” value was 0, the “Ligand-pharmacophore element distance, pharmacophore element C6” value was 0 and the “Ligand-pharmacophore element distance, pharmacophore element C7” value was 0. The “Ligand-pharmacophore element distance, pharmacophore element CA1” value was 0.99, the “Ligand-pharmacophore element distance, pharmacophore element CA2” value was 0 and the “Ligand-pharmacophore element distance, pharmacophore element CA3” value was 0. The “Ligand-pharmacophore element distance, pharmacophore element CA4” value was 0, the “Ligand-pharmacophore element distance, pharmacophore element CA5” value was 1.16 and the “Ligand-pharmacophore element distance, pharmacophore element CA6” value was 0. The “d(CA1,O1)” value was 5.68, the “d(CA1,O2)” value was 5.17 and the “d(H4,O1)” value was 3.14. For the same compound, the “d(H4,O2)” value was 3.69, the “d(O1,O2)” value was 3.33 and the “d(CA5,N2)” value [1] was 5.10. For the same compound, the “d(O2,H3)” value [1] was 5.91, the “d(O2,N2)” value [1] was 2.70 and the “a(CA1, O1, O2)” value was 99.20. For the same compound, the “a(O1, O2, H4)” value was 122.31, the “a(O1, O2, H3)” value (Table A6-2 pharmacophore angle) was 152.83 and the “a(O1, O2, N2)” value (Table A6-2 pharmacophore angle) was 141.07. For the same compound, the “Pharmacophore torsion angle a(H4, O1, O2, H3)” value [2] was 89.27, the “Pharmacophore torsion angle a(H4, O1, O2, N2)” value [2] was −178.39 and the “Pharmacophore torsion angle a(O1, H4, O2, CA1)” value [2] was −94.63. For the same compound, the “Pharmacophore torsion angle a(O1, O2, N2, CA5)” value [3] was 133.38, the “Pharmacophore protein distance to MET_658 (first MET_658 column)” value was 2.61 and the “Pharmacophore protein distance to MET_658 (second MET_658 column)” value was 3.31. The “Pharmacophore protein distance to GLY_528” value was 3.59, the “Pharmacophore protein distance to PHE_529” value was 2.81 and the “Pharmacophore protein distance to PRO_608” value was 3.90. For the same compound, the “Pharmacophore protein distance to SER_611” value was 2.79 and the “Pharmacophore protein distance to TRP_655” value was 3.57.

For C[C@H](NC(=O)[C@H]1Cc2c([nH]c3ccccc23)CN1)C(=O)NCc1ccc(C(=N)N)cc1.Cl.Cl [1097_1], the “Ligand-pharmacophore element distance, pharmacophore element C2” value was 0.69, the “Ligand-pharmacophore element distance, pharmacophore element C3” value was 0 and the “Ligand-pharmacophore element distance, pharmacophore element C4” value was 0. The “Ligand-pharmacophore element distance, pharmacophore element C5” value was 0, the “Ligand-pharmacophore element distance, pharmacophore element C6” value was 0 and the “Ligand-pharmacophore element distance, pharmacophore element C7” value was 0. For the same compound, the “Ligand-pharmacophore element distance, pharmacophore element CA1” value was 0.29, the “Ligand-pharmacophore element distance, pharmacophore element CA2” value was 0 and the “Ligand-pharmacophore element distance, pharmacophore element CA3” value was 0. For the same compound, the “Ligand-pharmacophore element distance, pharmacophore element CA4” value was 0, the “Ligand-pharmacophore element distance, pharmacophore element CA5” value was 0.98 and the “Ligand-pharmacophore element distance, pharmacophore element CA6” value was 0. The “d(CA1,N1)” value was 3.53, the “d(CA1,O1)” value was 4.28 and the “d(CA1,O2)” value was 4.28. For the same compound, the “d(H4,O1)” value was 3.88, the “d(H4,O2)” value was 3.35 and the “d(O1,O2)” value was 3.32. For the same compound, the “d(CA5,N2)” value [1] was 4.50, the “d(N2,C2)” value [1] was 1.42 and the “d(O2,H3)” value [1] was 4.58. For the same compound, the “d(O2,N2)” value [1] was 2.81, the “a(CA1, O1, O2)” value was 112.80 and the “a(O1, O2, H4)” value was 125.81. For the same compound, the “A(N1, CA1, O1) a)” value was 162.99, the “a(O1, O2, H3)” value (Table A6-2 pharmacophore angle) was 152.91 and the “a(O1, O2, N2)” value (Table A6-2 pharmacophore angle) was 134.93. For the same compound, the “a(O2, N2, C2)” value (Table A6-2 pharmacophore angle) was 125.76, the “Pharmacophore torsion angle a(H4, O1, O2, H3)” value [2] was 86.65 and the “Pharmacophore torsion angle a(H4, O1, O2, N2)” value [2] was 121.05. The “Pharmacophore torsion angle a(N1, CA1, O2, H4)” value [2] was −97.71, the “Pharmacophore torsion angle a(O1, H4, O2, CA1)” value [2] was −66.34 and the “Pharmacophore torsion angle a(O1, O2, N2, C2)” value [2] was 136.92. The “Pharmacophore torsion angle a(O1, O2, N2, CA5)” value [3] was 148.15, the “Pharmacophore protein distance to MET_658 (first MET_658 column)” value was 2.40 and the “Pharmacophore protein distance to MET_658 (second MET_658 column)” value was 3.49. For the same compound, the “Pharmacophore protein distance to GLY_528” value was 3.46, the “Pharmacophore protein distance to PHE_529” value was 2.89 and the “Pharmacophore protein distance to PRO_608” value was 3.89. For the same compound, the “Pharmacophore protein distance to SER_611” value was 3.04 and the “Pharmacophore protein distance to TRP_655” value was 3.24.

With C[C@H](NC(=O)[C@H]1Cc2c([nH]c3ccccc23)CN1)C(=O)NCc1ccc(C(=N)N)cc1.Cl.Cl [1097_2] the “Ligand-pharmacophore element distance, pharmacophore element C2” value was 0.72, the “Ligand-pharmacophore element distance, pharmacophore element C3” value was 0 and the “Ligand-pharmacophore element distance, pharmacophore element C4” value was 0. For the same compound, the “Ligand-pharmacophore element distance, pharmacophore element C5” value was 0, the “Ligand-pharmacophore element distance, pharmacophore element C6” value was 0 and the “Ligand-pharmacophore element distance, pharmacophore element C7” value was 0. For the same compound, the “Ligand-pharmacophore element distance, pharmacophore element CA1” value was 0.32, the “Ligand-pharmacophore element distance, pharmacophore element CA2” value was 0 and the “Ligand-pharmacophore element distance, pharmacophore element CA3” value was 0. The “Ligand-pharmacophore element distance, pharmacophore element CA4” value was 0, the “Ligand-pharmacophore element distance, pharmacophore element CA5” value was 1.1 and the “Ligand-pharmacophore element distance, pharmacophore element CA6” value was 0. The “d(CA1,N1)” value was 3.52, the “d(CA1,O1)” value was 4.35 and the “d(CA1,O2)” value was 4.09. For the same compound, the “d(H4,O1)” value was 4.74, the “d(H4,O2)” value was 4.28 and the “d(O1,O2)” value was 3.33. The “d(CA5,N2)” value [1] was 4.50, the “d(N2,C2)” value [1] was 1.42 and the “d(O2,H3)” value [1] was 4.29. The “d(O2,N2)” value [1] was 2.81, the “a(CA1, O1, O2)” value was 109.11 and the “a(O1, O2, H4)” value was 137.06. The “A(N1, CA1, O1) a)” value was 163.92, the “a(O1, O2, H3)” value (Table A6-2 pharmacophore angle) was 153.30 and the “a(O1, O2, N2)” value (Table A6-2 pharmacophore angle) was 137.12. For the same compound, the “a(O2, N2, C2)” value (Table A6-2 pharmacophore angle) was 128.45, the “Pharmacophore torsion angle a(H4, O1, O2, H3)” value [2] was 91.00 and the “Pharmacophore torsion angle a(H4, O1, O2, N2)” value [2] was 129.42. For the same compound, the “Pharmacophore torsion angle a(N1, CA1, O2, H4)” value [2] was −142.69, the “Pharmacophore torsion angle a(O1, H4, O2, CA1)” value [2] was −71.28 and the “Pharmacophore torsion angle a(O1, O2, N2, C2)” value [2] was 125.27. For the same compound, the “Pharmacophore torsion angle a(O1, O2, N2, CA5)” value [3] was 137.08, the “Pharmacophore protein distance to MET_658 (first MET_658 column)” value was 2.55 and the “Pharmacophore protein distance to MET_658 (second MET_658 column)” value was 3.13. The “Pharmacophore protein distance to GLY_528” value was 3.52, the “Pharmacophore protein distance to PHE_529” value was 3.02 and the “Pharmacophore protein distance to PRO_608” value was 3.56. The “Pharmacophore protein distance to SER_611” value was 3.29 and the “Pharmacophore protein distance to TRP_655” value was 3.09.
